This note sets out measurements from PubChem BioAssay (NCI).

“And” between values parts separate entries of the source, which are not always exact repeats. Equal values may be shown once.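 Dose response: 5 concentrations. Exposure: 48 h. Format: 96-well plates. Endpoint: linear interpolation; highest concentration if not reached. GI50 is the concentration that inhibits growth by half. TGI denotes the concentration required for complete inhibition of growth.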

Some test systems named below: COLO 205 colon; HCC-2998 colon; HOP-92 NSCLC; K-562 leukemia; NCI/ADR-RES ovarian; SF-295 CNS; SF-539 CNS.
Assay in all cases: NCI anticancer screen, dose series, 48 h

On to `COc1ccc(-c2nc(-c3cn(C)c4ncccc34)cs2)cc1`, for which the GI50 in the test with COLO 205 colon is 29 µM; in the test on HCC-2998 colon, 80.6 µM; in the test with HOP-92 NSCLC, 2.02 µM; in the test with K-562 leukemia, 5.05 µM; in the test on NCI/ADR-RES ovarian, 11.9 µM; with SF-295 CNS, 20.3 µM. The GI50 in the test with SF-539 CNS is 92.7 µM. The TGI in the test with COLO 205 colon is > 100 µM; in the test with HCC-2998 colon it was > 100 µM; in the test on HOP-92 NSCLC, 55.9 µM; in the test on K-562 leukemia, > 100 µM; in the test with NCI/ADR-RES ovarian, > 100 µM; with SF-295 CNS it was > 100 µM. In addition, in the test on SF-539 CNS, the TGI was > 100 µM.
Consider `O=C(NOCC1CC1)c1ccc(F)c(F)c1Nc1ccc(I)cc1Cl`, for which the GI50 was 0.0704 µM with COLO 205 colon; 0.178 µM with HCC-2998 colon; 0.0927 µM with HOP-92 NSCLC; 2.55 µM in the test with K-562 leukemia; 2.85 µM in the test on NCI/ADR-RES ovarian; 2.63 µM with SF-295 CNS. For the same compound, the GI50 with SF-539 CNS was 2.24 µM. For the same compound, the TGI was 3.54 µM in the test with COLO 205 colon; 2.69 µM in the test on HCC-2998 colon; 1.18 µM in the test on HOP-92 NSCLC; > 35.3 µM with K-562 leukemia; > 47.9 µM in the test with NCI/ADR-RES ovarian; 44.6 µM in the test on SF-295 CNS. This compound also yielded a TGI in the test with SF-539 CNS of 9.73 µM.
In the case of `S=C(Nc1ccc(Cl)cc1)Nc1ccc(-c2nc3ccccc3[nH]2)cc1`, the GI50 in the test with COLO 205 colon was 2.65 µM; in the test on HCC-2998 colon, 1.39 µM; in the test on HOP-92 NSCLC, 1.53 µM; in the test on K-562 leukemia, 5.2 µM; with NCI/ADR-RES ovarian it was 17.2 µM; in the test with SF-295 CNS, 0.757 µM. Further, in the test with SF-539 CNS, the GI50 was 5.27 µM. In addition, the TGI with COLO 205 colon is > 35.8 µM; in the test on HCC-2998 colon, 2.69 µM; in the test on HOP-92 NSCLC it was 12.3 µM; in the test with K-562 leukemia, 31.3 µM; in the test with NCI/ADR-RES ovarian, > 57.4 µM; in the test on SF-295 CNS it was 4.24 µM. In addition, the TGI with SF-539 CNS worked out at 13.5 µM.
For `Cc1[nH]c(/C=C2\C(=O)Nc3ccc(F)cc32)c(C)c1C(=O)NC[C@H](O)CN1CCOCC1`, the GI50 is 3.41 µM in the test with COLO 205 colon; 5.17 µM in the test with HCC-2998 colon; 1.17 µM in the test with HOP-92 NSCLC; 4.96 µM in the test with K-562 leukemia; > 10 µM in the test on NCI/ADR-RES ovarian; > 10 µM with SF-295 CNS. Further, the GI50 in the test with SF-539 CNS is 4.31 µM. The TGI was > 10 µM in the test with COLO 205 colon; > 10 µM in the test on HCC-2998 colon; 6.84 µM in the test with HOP-92 NSCLC; > 10 µM in the test on K-562 leukemia; > 10 µM with NCI/ADR-RES ovarian; > 10 µM in the test on SF-295 CNS. Further, the TGI in the test on SF-539 CNS was > 10 µM.
As for `Cc1cc(S(=O)(=O)Nc2nnc(-c3ccccc3)c(-c3ccccc3)n2)c(SCc2ccccc2)cc1Cl`, the GI50 in the test with COLO 205 colon was 23.6 µM; in the test with HCC-2998 colon, 27.3 µM; in the test on HOP-92 NSCLC, 18.8 µM; in the test with K-562 leukemia, 29.6 µM; in the test with NCI/ADR-RES ovarian, 32.8 µM; with SF-295 CNS, 19.5 µM. In the test with SF-539 CNS, the GI50 is 19.9 µM. Also, the TGI with COLO 205 colon was 48 µM; in the test with HCC-2998 colon it was 43.8 µM; in the test with HOP-92 NSCLC, 47.1 µM; in the test with K-562 leukemia, > 100 µM; with NCI/ADR-RES ovarian, 90.3 µM; in the test on SF-295 CNS it was 38.5 µM. This compound also yielded a TGI in the test with SF-539 CNS of 38.6 µM.
On to `COc1ccc(-c2cn[nH]c2-c2cc(OC)c(OC)c(OC)c2)cc1N`, for which the GI50 was < 0.01 µM and 0.0347 µM in the test with COLO 205 colon; < 0.01 µM and 0.0317 µM in the test with HCC-2998 colon; < 0.01 µM in the test with K-562 leukemia; < 0.01 µM and 0.0379 µM with NCI/ADR-RES ovarian; < 0.01 µM and 0.0134 µM in the test with SF-295 CNS; < 0.01 µM in the test on SF-539 CNS. The TGI in the test on HCC-2998 colon was 93.6 µM and 32.1 µM; with HOP-92 NSCLC, > 100 µM; in the test with K-562 leukemia, > 100 µM; in the test on NCI/ADR-RES ovarian, > 100 µM; in the test with SF-295 CNS, > 100 µM; in the test with SF-539 CNS it was > 100 µM.
`COc1c(O)ccc2c1CN1CCc3cc4c(cc3C1C2)OCO4` (stereo not drawn): the TGI with COLO 205 colon was > 100 µM; with HCC-2998 colon, > 100 µM; with HOP-92 NSCLC, > 100 µM; in the test with K-562 leukemia, > 100 µM; with NCI/ADR-RES ovarian, 90.2 µM; in the test on SF-295 CNS, > 96.6 µM. Also, in the test with SF-539 CNS, the TGI is > 100 µM.
Take `CC(=O)N1c2ccccc2Sc2cc(C(O)(C(F)(F)F)C(F)(F)F)ccc21`: the TGI in the test with COLO 205 colon, in the test with HCC-2998 colon, with HOP-92 NSCLC, with K-562 leukemia, in the test on NCI/ADR-RES ovarian and with SF-295 CNS was > 10 µM throughout. The TGI in the test on SF-539 CNS was > 10 µM.
Take `O=C1CCC2(C=C(Br)C(=O)C(Br)=C2)O1`: the GI50 in the test on COLO 205 colon was 1.52 µM; in the test with HCC-2998 colon, 18.7 µM; with HOP-92 NSCLC, 3.07 µM; in the test with K-562 leukemia, 2.81 µM; with NCI/ADR-RES ovarian, 16.2 µM; with SF-295 CNS, 15.9 µM. In the test with SF-539 CNS, the GI50 is 2.63 µM. Also, the TGI in the test on COLO 205 colon was found to be 2.98 µM; in the test on HCC-2998 colon, 33.5 µM; in the test on HOP-92 NSCLC it was 8.89 µM; in the test on K-562 leukemia it was 21.7 µM; in the test on NCI/ADR-RES ovarian, 37.3 µM; in the test on SF-295 CNS it was 31.7 µM. This compound also displayed a TGI in the test with SF-539 CNS of 7.14 µM.
Take `C[C@H]1CCC/C=C/[C@@H]2C[C@H](O)C[C@H]2[C@H](O)[C@@H](S(=O)CCN(C)C)CC(=O)O1` (stereo partly drawn): the GI50 with COLO 205 colon is 0.107 µM; in the test with HCC-2998 colon, 0.386 µM; in the test on HOP-92 NSCLC it was 4.99 µM; in the test on K-562 leukemia it was 0.633 µM; with NCI/ADR-RES ovarian, 0.0629 µM; in the test on SF-295 CNS, 0.524 µM. Moreover, the GI50 with SF-539 CNS is 0.151 µM. In addition, the TGI with COLO 205 colon is 0.876 µM; with HCC-2998 colon, > 100 µM; in the test with HOP-92 NSCLC it was > 100 µM; in the test on K-562 leukemia, > 100 µM; with NCI/ADR-RES ovarian, > 100 µM; in the test with SF-295 CNS, > 100 µM. Further, the TGI in the test with SF-539 CNS was > 100 µM.
With `O=C1C=Cc2ccccc2/C1=C/c1[nH]c(=O)[nH]c1O`, the GI50 was 3.59 µM in the test on COLO 205 colon; 7.43 µM with HCC-2998 colon; 5.75 µM in the test on HOP-92 NSCLC; 2.85 µM in the test on K-562 leukemia; 20.3 µM in the test on NCI/ADR-RES ovarian; 3.1 µM in the test on SF-295 CNS. Moreover, the GI50 in the test with SF-539 CNS was 3.38 µM. The TGI in the test on COLO 205 colon is 31.9 µM; in the test with HCC-2998 colon, > 100 µM; with HOP-92 NSCLC, 47.8 µM; in the test with K-562 leukemia, 34 µM; in the test with NCI/ADR-RES ovarian, > 100 µM; in the test on SF-295 CNS it was 8.3 µM. In the test with SF-539 CNS, this compound registered a TGI of 16.8 µM.
